Data from paper PMC6533572, “Elucidation of the Differences in Cinobufotalin’s Pharmacokinetics Between Normal and Diethylnitrosamine-Injured Rats: The Role of P-Glycoprotein” (Frontiers in Pharmacology, 2019).
Like-named read-outs stand apart in the source and are kept apart here.

How the values were obtained:
[1] = Bidirectional transport across MDCK II cell monolayers; type: in vitro ADME, canine; settings: dog; for efflux ratio at 120 min, 20 μM: read-out: ER
Method: (§1) MDCK II and MDCK-MDR1 cells were seeded into 12-well Transwell polycarbonate membrane inserts (12 mm diameter inserts, 0.4 μm pore size, Corning Costar) at a density of 6 × 10^5 cells/well. Cells were cultured at 37°C under 5% CO2 in DMEM with 10% FBS, and the culture medium was refreshed every other day. Experiments were conducted when the tight junctional cell monolayer formed. First, the cells were washed three times using 37°C preheated HBSS buffer (pH = 7.4) and preincubated in a shaking incubator for 30 min at 37°C. Then the transport studies were initiated after the blank HBSS buffer and dosing solution (HBSS buffer containing cinobufotalin at a final concentration of 20 μM) were added to the receiver compartment and donor compartment, respectively. Verapamil, if used, was added to both compartment during the incubated period. The volumes of the apical side (AP) and basolateral side (BL) were 0.5 and 1.5 mL, respectively. Samples (100 μL) were taken from the receiver compartment every 30 min during the incubation period of 120 min, and then replaced with the same volume of […]. At the end of the incubated period, aliquots of 100 μL were withdrawn from the donor compartment to calculated mass balance. All samples were mixed with 50 μL acetonitrile and centrifuged at 4°C (12,000 g, 10 min. The supernatant was subjected to UPLC-QTOF/MS for analyses.
(§2) The apparent permeability (cm/s) from apical-to-basal (Papp,AP-BL) and basal-to-apical (Papp,BL-AP) were calculated according to the following Equation (4), where dQ/dt is the rate of drug permeation (nmol/s), A is the area of polycarbonate membrane (A = 1.12 cm^2), and C0 is the initial concentration of cinobufotalin in the donor compartment.
(§3) The efflux ratio (ER) and net flux ratio were calculated according to Equations (5) and (6) as described in our previous research ([Sun et al., 2017]).
(§4) (5) ER=Papp, BL−AP/Papp, AP−BL

P-glycoprotein (P-gp) [2] = target: T1, P-glycoprotein (P-gp) (Homo sapiens, UniProt P08183); assay: Bidirectional transport across MDCK-MDR1 cell monolayers; type: in vitro ADME; settings: for Net flux ratio: ER MDCK-MDR1 / ER MDCK II, cinobufotalin 20 μM; for Papp A→B at 120 min, 20 μM / Papp B→A at 120 min, 20 μM / efflux ratio at 120 min, 20 μM: dog, MDCK-MDR1, cinobufotalin 20 μM; for efflux ratio at 120 min, 20 μM: read-out: ER
T1 construct: expressed in transfected cells; host or cells: MDCK II (Madin Darby canine kidney) cells stably transfected with the MDR1 gene
Method: as §1, §2, §3, §4
(6) Net flux ratio=ERMDCK−MDRI/ERMDCK II

MDCK II cells = assay: Cellular uptake (intracellular accumulation) in MDCK II cells; type: in vitro ADME, canine; settings: verapamil 100 μM, 2 h
Method: (§5) Madin Darby canine kidney (MDCK II) cells stably transfected with multidrug resistance 1 gene (MDCK-MDR1 cells) were conducted and used in cinobufotalin uptake studies. Wild type MDCK II or MDCK-MDR1 cells were seeded into six-well plates at the destiny of 2 × 10^5 cells/well and maintained at 37°C under 5% CO2 in DMEM with 10% FBS. The well-known P-gp inhibitor, verapamil (100 μM), was used as the positive control to evaluate the effect of P-gp on cinobufotalin uptake ([Bicker et al., 2017]).
(§6) The uptake experiment was performed when the cells reached 100% confluency. First, cells were washed three times using 37°C Hanks’ balanced salt solution (HBSS) buffer (pH = 7.2). Then, 2 mL HBSS (37°C, pH = 7.2) buffer containing cinobufotalin (5 and 20 μM) were added and incubated with cells in the absence or presence of potential P-gp inhibitors, verapamil (100 μM). After incubation for 2 h, the incubation medium was removed, and cells were washed three times using ice-cold HBSS buffer. Then 400 μL of ice-cold MeOH:H2O (1:1, v/v) were added into each well, the cells were collected and sonicated for 15 min in ice-cold water. The mixture was centrifuged at 4°C (12,000 g, 10 min), and the supernatant was subjected to UPLC-QTOF/MS for analyses.

P-glycoprotein (P-gp) [3] = target: T1, P-glycoprotein (P-gp); assay: Cellular uptake (intracellular accumulation) in MDCK-MDR1 cells; type: in vitro ADME; settings: 2 h; for increase of intracellular accumulation of cinobufotalin by verapamil: MDCK-MDR1 cells, verapamil 100 μM
Method: as §5, §6

CYP3A4 = tested on: CYP3A4; set-up: method as in Han et al., 2016; settings: especially mediated by CYP3A4; ref Han et al., 2016; cited from earlier work
Huh-7 cells [4] = assay: Wound healing assay, Huh-7 cells; type: cell-based; settings: 40, 60 and 80 nM, 24 h
Method: (§7) Hepatocellular cancer cells (HepG2 and Huh-7) were purchased from the cell bank of the Chinese Academy of Science (Shanghai, China). These cells were cultured in Dulbecco’s modified Eagle’s medium (DMEM) containing 10% fetal bovine serum (FBS), penicillin (100 units/mL) and streptomycin (100 units/mL) in a humidified atmosphere with 5% CO2 at 37 °C.
Wound healing assay was used to investigate the effect of cinobufotalin on the migration of HepG2 and Huh-7 cells. Cells were seeded into 6-well plates at the density of 4 × 10^5 cells/well and maintained until reaching monolayer confluence. The cells were scratched using 20-μL pipette tips and rinsed with PBS buffer for three times. And then the cells were cultured in serum-free medium containing different concentrations of cinobufotalin (40, 60, 80 nM). After treatment with cinobufotalin for different lengths of time (0 and 24 h), the width of wound was measured and the images of cells were acquired using inverted microscope (Leica, Wetzlar, German). The rate of wound healing = [(the wound width of 0 h - 24 h)/0 h wound width] × 100%. All experiments were performed in triplicate.

Huh-7 cells [5] = assay: Cell viability CCK-8 assay, Huh-7 cells; type: cell-based; settings: Homo sapiens, 40 nM, 60 nM and 80 nM, 24 h, read-out: inhibition of Huh-7 cells growth (CCK-8)
Method: as §7
Furthermore, the effect of cinobufotalin at 40, 60, 80 nM on hepatocellular cancer cells (HepG2 and Huh-7 cells) viability was conducted using Cell Counting Kit - 8 (CCK-8) assay (Sigma-Aldrich, St Louis, MO). In brief, cells were seeded into 96-well plates at 5 × 10^3 cells/well and cultured for 24 h in DMEM medium as described in 1.1 section. Then various concentrations of cinobufotalin (40, 60, 80 nM) were added into cells. After 24 h treatment, 10 μL of CCK-8 solution was added into every well of the plate. The plate was incubated in the incubator for other 4 h, and then the absorbance was measured at 450 nm using a microplate reader (Thermo Scientific, Rockford, IL). The cell viability was calculated by the formula: cell viability (100%) = (OD value of the treated wells - OD value of the blank control wells) / (OD value of the negative control wells - OD value of the blank control wells).

[6] = pH 7.4, with verapamil (concentration not stated), in both compartments, cinobufotalin 20 μM, with verapamil
[7] = pH 7.4, with verapamil (concentration not stated), in both compartments, with verapamil

T1 sequence (P08183 whole entry): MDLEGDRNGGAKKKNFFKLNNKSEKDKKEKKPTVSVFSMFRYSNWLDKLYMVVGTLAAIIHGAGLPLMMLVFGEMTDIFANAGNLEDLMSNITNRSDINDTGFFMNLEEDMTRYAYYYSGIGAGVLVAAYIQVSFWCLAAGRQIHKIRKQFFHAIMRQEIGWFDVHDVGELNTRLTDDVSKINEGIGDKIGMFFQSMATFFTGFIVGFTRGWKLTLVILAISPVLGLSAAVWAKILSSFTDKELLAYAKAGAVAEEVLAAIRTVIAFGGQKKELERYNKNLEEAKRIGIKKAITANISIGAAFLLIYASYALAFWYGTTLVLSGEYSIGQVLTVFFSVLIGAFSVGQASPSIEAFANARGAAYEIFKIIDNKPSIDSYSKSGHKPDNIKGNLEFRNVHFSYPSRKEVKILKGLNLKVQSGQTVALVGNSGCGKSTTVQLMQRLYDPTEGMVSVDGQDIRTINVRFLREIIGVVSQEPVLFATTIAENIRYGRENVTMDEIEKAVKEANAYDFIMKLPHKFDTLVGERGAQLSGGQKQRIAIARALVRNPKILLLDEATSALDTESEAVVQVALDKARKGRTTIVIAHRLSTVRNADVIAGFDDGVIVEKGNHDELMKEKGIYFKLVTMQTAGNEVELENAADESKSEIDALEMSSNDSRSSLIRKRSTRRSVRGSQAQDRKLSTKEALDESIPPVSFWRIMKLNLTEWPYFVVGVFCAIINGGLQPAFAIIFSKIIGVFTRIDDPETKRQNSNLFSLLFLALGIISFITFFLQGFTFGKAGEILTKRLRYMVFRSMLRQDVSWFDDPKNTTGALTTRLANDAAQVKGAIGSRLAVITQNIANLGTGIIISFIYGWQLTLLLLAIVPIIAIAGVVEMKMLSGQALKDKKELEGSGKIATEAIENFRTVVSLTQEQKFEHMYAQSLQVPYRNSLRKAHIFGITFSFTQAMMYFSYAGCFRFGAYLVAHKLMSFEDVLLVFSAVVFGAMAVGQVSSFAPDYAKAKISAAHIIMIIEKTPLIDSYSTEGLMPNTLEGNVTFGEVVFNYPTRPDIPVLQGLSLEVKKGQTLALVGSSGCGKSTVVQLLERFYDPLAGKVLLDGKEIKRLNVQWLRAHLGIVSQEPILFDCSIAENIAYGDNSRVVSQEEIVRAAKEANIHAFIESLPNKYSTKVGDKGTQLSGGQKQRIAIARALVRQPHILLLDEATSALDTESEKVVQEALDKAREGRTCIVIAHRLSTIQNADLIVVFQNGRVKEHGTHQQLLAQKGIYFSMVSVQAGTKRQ

Q: For `CC(=O)O[C@H]1[C@H]2O[C@]23[C@@H]2CC[C@]4(O)C[C@@H](O)CC[C@]4(C)[C@H]2CC[C@]3(C)[C@H]1c1ccc(=O)oc1` [Cinobufotalin], which Papp A→B at 120 min, 20 μM ([1]; pH 7.4, cinobufotalin 20 μM) is on record?
A: 33.8 ± 1.1 ×10⁻⁶ cm/s

Q: And the Papp B→A at 120 min, 20 μM ([1]; pH 7.4, cinobufotalin 20 μM)?
A: 35.9 ± 1.3 ×10⁻⁶ cm/s

Q: What about the efflux ratio at 120 min, 20 μM ([1]; pH 7.4, cinobufotalin 20 μM) of the same compound?
A: 1.1

Q: And the Papp A→B at 120 min, 20 μM [1, 6]?
A: 23.4 ± 2.2 ×10⁻⁶ cm/s

Q: And the Papp B→A at 120 min, 20 μM [1, 6]?
A: 24.8 ± 2.7 ×10⁻⁶ cm/s

Q: And the efflux ratio at 120 min, 20 μM [1, 6]?
A: 1.1

Q: What about the Net flux ratio (P-glycoprotein (P-gp) [2]) of the same compound?
A: 2.1

Q: And the Net flux ratio (P-glycoprotein (P-gp) [2]; with verapamil)?
A: 1.0

Q: What about the “decrease of net flux ratio when verapamil was used” value (P-glycoprotein (P-gp) [2]; MDCK-MDR1 vs MDCK II, with verapamil) of the same compound?
A: 50.7%

Q: What about the Papp A→B at 120 min, 20 μM (P-glycoprotein (P-gp) [2]; [7]) of the same compound?
A: 32.1 ± 1.5 ×10⁻⁶ cm/s

Q: What about the Papp B→A at 120 min, 20 μM (P-glycoprotein (P-gp) [2]; [7]) of the same compound?
A: 34.5 ± 2.3 ×10⁻⁶ cm/s

Q: And the efflux ratio at 120 min, 20 μM (P-glycoprotein (P-gp) [2]; [7])?
A: 1.1

Q: What about the Papp A→B at 120 min, 20 μM (P-glycoprotein (P-gp) [2]; pH 7.4) of the same compound?
A: 19.4 ± 1.3 ×10⁻⁶ cm/s

Q: What about the Papp B→A at 120 min, 20 μM (P-glycoprotein (P-gp) [2]; pH 7.4) of the same compound?
A: 42.4 ± 1.5 ×10⁻⁶ cm/s

Q: What about the efflux ratio at 120 min, 20 μM (P-glycoprotein (P-gp) [2]; pH 7.4) of the same compound?
A: 2.2

Q: What about the P-gp substrate identification (P-glycoprotein (P-gp) [2]; net flux ratio higher than 2 and reduction more than 50% with verapamil) of the same compound?
A: substrate of P-gp

Q: What about the “effect of verapamil on the intracellular accumulation of cinobufotalin” value (MDCK II cells) of the same compound?
A: did not alter

Q: What about the “intracellular amount of cinobufotalin in MDCK II cells compared with MDCK-MDR1 cells” value (P-glycoprotein (P-gp) [3]; 5 and 20 μM) of the same compound?
A: obviously higher

Q: What about the “increase of intracellular accumulation of cinobufotalin by verapamil” value (P-glycoprotein (P-gp) [3]; cinobufotalin 5 μM) of the same compound?
A: 4.0 fold

Q: What about the “increase of intracellular accumulation of cinobufotalin by verapamil” value (P-glycoprotein (P-gp) [3]; cinobufotalin 20 μM) of the same compound?
A: 3.5 fold

Q: And the “metabolic pathways in human liver microsomes” value (CYP3A4)?
A: undergo hydroxylation and dehydrogenation

Q: What about the “migration of Huh-7 cells (wound healing)” value (Huh-7 cells [4]) of the same compound?
A: significantly attenuated

Q: What about the inhibition at 0.04 µM (Huh-7 cells [5]) of the same compound?
A: < 15%
